Assay results from PubChem BioAssay AID2060603 (Molecular Pharmacology Branch, DTP, NCI, 2025).
Blank lines part the entries; values can stand above or below the molecule they belong to.

Test system: 422866-222-R5-J1-PDC spheroid viability
Assay: Anticancer human tumor 422866-222-R5-J1-PDC patient-derived pancreatic adenocarcinoma cell line growth inhibition [CLK]
Conditions: spheroids with HUVEC and MSC; for IC50: curve of first compound; for viability, T/C: stronger effect = lower value
Procedure, shortened: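 Multi-cell-type spheroids combined patient-derived tumor cells with HUVEC endothelial cells and human mesenchymal stem cells. Paired agents were dosed in half-log steps down from about clinical Cmax, or from 10 microM where Cmax was unknown.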

[1] = second compound 0.0316 µM, first compound 0.0316 µM
[2] = second compound 0.0316 µM, first compound 0.1 µM
[3] = second compound 0.0316 µM, first compound 0.316 µM
[4] = second compound 0.0316 µM, first compound 1 µM
[5] = second compound 0.0316 µM, first compound 3.16 µM
[6] = second compound 0.0316 µM, first compound 10 µM
[7] = second compound 0.1 µM, first compound 0.0316 µM
[8] = second compound 0.1 µM, first compound 0.1 µM
[9] = second compound 0.1 µM, first compound 0.316 µM
[10] = second compound 0.1 µM, first compound 1 µM
[11] = second compound 0.1 µM, first compound 3.16 µM
[12] = second compound 0.1 µM, first compound 10 µM
[13] = second compound 0.316 µM, first compound 0.0316 µM
[14] = second compound 0.316 µM, first compound 0.1 µM
[15] = second compound 0.316 µM, first compound 0.316 µM
[16] = second compound 0.316 µM, first compound 1 µM
[17] = second compound 0.316 µM, first compound 3.16 µM
[18] = second compound 0.316 µM, first compound 10 µM
[19] = second compound 1 µM, first compound 0.0316 µM
[20] = second compound 1 µM, first compound 0.1 µM
[21] = second compound 1 µM, first compound 0.316 µM
[22] = second compound 1 µM, first compound 1 µM
[23] = second compound 1 µM, first compound 3.16 µM
[24] = second compound 1 µM, first compound 10 µM
[25] = second compound 3.16 µM, first compound 0.0316 µM
[26] = second compound 3.16 µM, first compound 0.1 µM
[27] = second compound 3.16 µM, first compound 0.316 µM
[28] = second compound 3.16 µM, first compound 1 µM
[29] = second compound 3.16 µM, first compound 3.16 µM
[30] = second compound 3.16 µM, first compound 10 µM
[31] = second compound 10 µM, first compound 0.0316 µM
[32] = second compound 10 µM, first compound 0.1 µM
[33] = second compound 10 µM, first compound 0.316 µM
[34] = second compound 10 µM, first compound 1 µM
[35] = second compound 10 µM, first compound 3.16 µM
[36] = second compound 10 µM, first compound 10 µM
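Note: spheroids exposed to agents for seven days before readout.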

IC50 (second compound 0.0316 µM): 939 nM
IC50 (second compound 0.1 µM): 125 nM
IC50 (second compound 0.316 µM): 86 nM
IC50 (second compound 1 µM): 119 nM
IC50 (second compound 3.16 µM): 158 nM
IC50 (second compound 10 µM): 72.4 nM
Compound: Nc1ccn(C2OC(CO)C(O)C2(F)F)c(=O)n1 (centres undefined) + CNC(=O)c1ccc(Nc2nc(OC3CCCC3)c3c(-c4ccc5nc(C)oc5c4)c[nH]c3n2)c(OC)c1
viability, T/C [1]: 61.4%
viability, T/C [2]: 57.8%
viability, T/C [3]: 53.7%
viability, T/C [4]: 50%
viability, T/C [5]: 45.3%
viability, T/C [6]: 39.6%
viability, T/C [7]: 90.4%
viability, T/C [8]: 50.8%
viability, T/C [9]: 44.9%
viability, T/C [10]: 46.1%
viability, T/C [11]: 36.3%
viability, T/C [12]: 42.1%
viability, T/C [13]: 73.8%
viability, T/C [14]: 46.7%
viability, T/C [15]: 37.8%
viability, T/C [16]: 40.6%
viability, T/C [17]: 36%
viability, T/C [18]: 37.5%
viability, T/C [19]: 69.8%
viability, T/C [20]: 51.4%
viability, T/C [21]: 42.8%
viability, T/C [22]: 32.2%
viability, T/C [23]: 39.2%
viability, T/C [24]: 43.8%
viability, T/C [25]: 55.2%
viability, T/C [26]: 60.7%
viability, T/C [27]: 42.1%
viability, T/C [28]: 40.4%
viability, T/C [29]: 33.7%
viability, T/C [30]: 34.1%
viability, T/C [31]: 67.8%
viability, T/C [32]: 42.9%
viability, T/C [33]: 40.3%
viability, T/C [34]: 33.7%
viability, T/C [35]: 39.2%
viability, T/C [36]: 40.6%

IC50 (second compound 0.0316 µM): > 10000 nM
IC50 (second compound 0.1 µM): > 10000 nM
IC50 (second compound 0.316 µM): > 10000 nM
IC50 (second compound 1 µM): 2180 nM
IC50 (second compound 3.16 µM): > 10000 nM
IC50 (second compound 10 µM): 3110 nM
Compound: O=c1[nH]cc(F)c(=O)[nH]1 + CNC(=O)c1ccc(Nc2nc(OC3CCCC3)c3c(-c4ccc5nc(C)oc5c4)c[nH]c3n2)c(OC)c1
viability, T/C [1]: 102%
viability, T/C [2]: 103%
viability, T/C [3]: 89.9%
viability, T/C [4]: 91.2%
viability, T/C [5]: 82.2%
viability, T/C [6]: 72.5%
viability, T/C [7]: 100%
viability, T/C [8]: 98.1%
viability, T/C [9]: 86%
viability, T/C [10]: 78.1%
viability, T/C [11]: 87%
viability, T/C [12]: 78.3%
viability, T/C [13]: 79.3%
viability, T/C [14]: 79.7%
viability, T/C [15]: 68.9%
viability, T/C [16]: 61.7%
viability, T/C [17]: 58.3%
viability, T/C [18]: 57.2%
viability, T/C [19]: 68.2%
viability, T/C [20]: 67.1%
viability, T/C [21]: 51.6%
viability, T/C [22]: 54.2%
viability, T/C [23]: 51%
viability, T/C [24]: 44.5%
viability, T/C [25]: 58.3%
viability, T/C [26]: 78.6%
viability, T/C [27]: 73.1%
viability, T/C [28]: 56.8%
viability, T/C [29]: 52.5%
viability, T/C [30]: 49.4%
viability, T/C [31]: 60.6%
viability, T/C [32]: 63.7%
viability, T/C [33]: 70%
viability, T/C [34]: 57.7%
viability, T/C [35]: 46.4%
viability, T/C [36]: 53.5%
